According to US9980953B2, “Combined composition for preventing or treating cancer comprising a benzophenone thiazole derivatives as a VDA and topoisomerase inhibitor” (CHONG KUN DANG PHARMACEUTICAL CORP., priority 2016, dated 2018):

What was measured:
Colo205 xenograft = assay: Anti-cancer effect in a Colo205 xenograft mouse model; assay type: in vivo, BALB/c-nu/nu male mice; conditions: irinotecan 20 mg/kg once per 4 days injection; for size of tumor compared to administration group of an excipient: formula 1 4 mg/kg every day oral, during administration period (10 weeks); for dead mice: observed for 85 days, formula 1 4 mg/kg daily oral
Excerpt: A human colorectal cancer cell line, Colo205 was purchased from ATCC (USA). The Colo205 cell line was maintained with RPMI1640 (Gibco, USA) including 10% fetal bovine serum (FBS; Gibco, Grand Island, N.Y., USA) and 1% antibiotics (Gibco, USA).
The human colorectal carcinoma, Colo205 cell was subcutaneously administered in BALB/c-nu/nu male mice (5×10^6 cell/head), and after grouping in order to making an average size of tumor 165˜167 mm^3, used in experiments.
A compound of formula 1 was prepared by the preparation method disclosed in International Laid-open Patent Publication WO 2009-119980, and prepared at 0.4 mg/ml concentration by dissolving with distilled water.
Irinotecan (Boryung, Korea) was prepared at 2 mg/ml concentration by diluting with 5% glucose saline solution. The solution to be used was prepared on the day of use, and remained solution was discarded.
The anti-cancer effect of the compound of formula 1 and irinotecan was estimated in the Colo205 xenograft model. Experimental groups were divided into the following administration groups. • Control group: vehicle • Single administration group of the compound of formula 1: the compound of formula 1 (4 mg/kg, every day, oral) • Single administration group of irinotecan: irinotecan (20 mg/kg, once per 4 days, injection) • Coadministration group: the compound of formula 1 (4 mg/kg, every day, oral), irinotecan (20 mg/kg, once per 4 days, injection)
(§1) All the experimental groups were orally and intraperitoneally administered for 10 weeks. Toxicity was observed by measuring weight of mice, and the growth of tumor was measured using calipers during experimental period. The volume of tumor was calculated according to the following calculation formula. tumor volume=(length×width^2)/2
The data of size of tumor, regression of tumor, and body weight changes was tested using Bartlett's test at significance level α=0.05, and as a result of the test, data having no significance was tested using one-way analysis of variance at significance level α=0.05, and data having significance was tested using Kruskal-Wallis test at significance level α=0.05.
Statistical analysis between each group was performed using GraphPad PRISM® Version 5.0 (GraphPad Software, USA).
Vehicle administration group was euthanized at the day 43 because cancer became too big.

HCT116 xenograft = assay: Anti-cancer effect in a HCT116 xenograft mouse model; assay type: in vivo, Athymic nude mouse (Hsd:Athymic Nude-Foxn1nu) male mice; conditions: formula 1 5 mg/kg once a week injection, irinotecan 20 mg/kg once per 4 days injection, intraperitoneal, 4 weeks
Procedure: A human colorectal cancer cell line, HCT116 was purchased from ATCC (USA). The HCT116 cell line was maintained with RPMI1640 (Gibco, USA) including 10% fetal bovine serum (FBS; Gibco, USA).
The human colorectal carcinoma, HCT116 cell was subcutaneously administered in Athymic nude mouse (Hsd:Athymic Nude-Foxn1^nu) male mice (5×10^6 cell/head), and used in experiments when the size of tumor became 150-200 mm^3.
A compound of formula 1 was prepared by the preparation method disclosed in International Laid-open Patent Publication WO 2009-119980, and prepared at 0.5 mg/ml concentration by dissolving with 0.9% saline solution.
Irinotecan (Jeilpharm, Korea) was prepared at 2 mg/ml concentration by diluting with 5% dextrose solution.
The anti-cancer effect of the compound of formula 1 and irinotecan was estimated in the HCT116 xenograft model. […]
as §1, with “were” for “were orally and”, “4” for “10”, “volume=(length×width^2)/2 […]” for “volume=(length×width^2)/2”

Compound	size of tumor compared to administration group of an excipient (Colo205 xenograft)	dead mice (Colo205 xenograft)	size of tumor compared to administration group of an excipient (HCT116 xenograft)
CCc1c2c(nc3ccc(OC(=O)N4CCC(N5CCCCC5)CC4)cc13)-c1cc3c(c(=O)n1C2)COC(=O)[C@]3(O)CC [irinotecan]	significantly decreased	no dead subject	significantly decreased
COc1cc(C(=O)c2ccc(-c3csc(NC(=O)[C@@H](N)C(C)C)n3)cc2-n2cncn2)cc(OC)c1OC [compound of formula 1, (S)-N-(4-(3-(1H-1,2,4-triazol-1-yl) -4-(3,4,5-trimethoxybenzoyl)phenyl)thiazol-2-yl)-2-amino-3-methylbutanamide]	significantly decreased	8 mice	significantly decreased
